Results taken from patent publication US6313375A, “Maize aquaporins and uses thereof” (Pioneer Hi-Bred International, Inc., priority 1999, dated 2001).

Experiments:
maize aquaporins = experiment: Inhibition of water transport through maize aquaporins in the Xenopus oocyte swelling assay; format: cell-based
Description: (§1) The biological activity of aquaporins is usually determined with Xenopus oocyte swelling assays (Maurel et al, 1993). MIP cRNA is injected into oocytes and after a 3-day incubation the oocytes are shifted to a hypotonic medium. If water channel proteins are present in the plasma membrane, the oocytes swell and burst much faster than the control oocytes. In these conditions oocytes injected with the plasma membrane AtRD28 aquaporin (Daniels et al., 1994) or maize aquaporin cRNAs rapidly increase their volume, indicating the presence of a facilitated water-transport pathway. The osmotic water permeability coefficient (Pf) of the oocyte membrane increases 8-fold over the control. Mercurial compounds were characteristic inhibitors of many water-channel proteins. Water transport through maize aquaporins are inhibited 50% by 1 mM mercuric chloride and this inhibition is reversed by the reducing agent -mercaptoethanol.

Xenopus oocyte = Xenopus oocyte swelling assay (oocytes injected with aquaporin cRNA, shifted to hypotonic medium); format: cell-based; conditions: 3-day incubation, versus control oocytes
Description: as §1

[Cl][Hg][Cl] [mercuric chloride]
inhibition of water transport through maize aquaporins (maize aquaporins; 1 mM mercuric chloride): 50%

OCCS [-mercaptoethanol]
reversal of the mercuric chloride inhibition of water transport through maize aquaporins (maize aquaporins; reducing agent added after inhibition by 1 mM mercuric chloride): reversed

B1: AtRD28 aquaporin: plasma membrane AtRD28 aquaporin (Daniels et al., 1994), injected into oocytes as cRNA (protein, UniProt P30302 1-285, looked up)
Aquaporin PIP2-3: MAKDVEGPDGFQTRDYEDPPPTPFFDAEELTKWSLYRAVIAEFVATLLFLYVTVLTVIGYKIQSDTKAGGVDCGGVGILGIAWAFGGMIFILVYCTAGISGGHINPAVTFGLFLARKVSLIRAVLYMVAQCLGAICGVGFVKAFQSSHYVNYGGGANFLADGYNTGTGLAAEIIGTFVLVYTVFSATDPKRNARDSHVPVLAPLPIGFAVFMVHLATIPITGTGINPARSFGAAVIFNKSKPWDDHWIFWVGPFIGATIAAFYHQFVLRASGSKSLGSFRSAANV
increase of the osmotic water permeability coefficient (Pf) of the oocyte membrane over the control (Xenopus oocyte): 8 fold
